From US20200085814A1, “COMBINATION OF CERTINIB WITH AN EGFR INHIBITOR” (Novartis AG, priority 2014, published 2020)
Entries after “also recorded” stand apart in the source; their conditions may differ. Like-named read-outs stand apart in the source and are kept apart here.

Columns and labels:
[1] = system: AKT phosphorylation in MGH051 cells; experiment: Western blotting, MGH051 cells, ceritinib 4 hours or 8 days, inhibitors added for last day; assay type: cell-based; conditions: MGH051 (FIG. 6); for rebound in AKT phosphorylation: added for the last day of long-term (8 days) ceritinib treatment
Method: (§1) FIG. 6. […] MGH051 cells were treated with ceritinib (LDK378) for 4 hours or 8 days.
(§2) The activated states of ALK and HER3 of multiple NSCLC cell lines that harbor EML4-ALK translocations were assessed in both short-term and long-term cultures.

[2] = system: ERK phosphorylation in MGH051 cells; experiment: Western blotting, MGH051 cells, inhibitors added for last day of long-term ceritinib treatment; assay type: cell-based; conditions: added for the last day of long-term (8 days) ceritinib treatment, MGH051 (FIG. 6)
Method: as §1, §2

MGH051 cells [3] = experiment: Cell colony formation assay, crystal violet; assay type: cell-based; conditions: MGH051, 7 days; for anti-proliferative effect in combination with ceritinib versus ceritinib alone (colony formation): ceritinib 0.5 μM + erlotinib 1 μM (FIG. 7); for cell growth inhibition as single agent (colony formation): ceritinib 0.5 μM or erlotinib 1 μM (FIG. 7)
Source text: (§3) FIGS. 7A and 7B. […] For each cell line, all dishes were fixed, stained and photographed at the same time.

MGH049 cells [4] = experiment: Cell colony formation assay, crystal violet; assay type: cell-based; conditions: MGH049, 7 days; for anti-proliferative effect in combination with ceritinib versus ceritinib alone (colony formation): ceritinib 0.5 μM + erlotinib 1 μM (FIG. 7); for cell growth inhibition as single agent (colony formation): ceritinib 0.5 μM or erlotinib 1 μM (FIG. 7)
Source text: as §3

MGH051 cells [5] = system: MGH051 cells
Method: (§4) These cell lines harbor EML4-ALK rearrangements.
(§5) Three replicate plates were set up for each cell line and drug compound, with or without ceritinib. A representative dose response curve was then calculated by taking the mean across the 3 replicates with and without ceritinib. Proliferation inhibition values were normalized to the measured inhibition value at zero dose of the compound, with and without ceritinib.
(§6) Experiments performed with cell lines MGH049 and MGH051 are depicted on FIG. 3 and FIG. 4, respectively.

MGH049 cells [6] = experiment: Cell proliferation (CellTiter-Glo), EGFR inhibitors with or without ceritinib; assay type: cell-based
Method: as §4, §5, §6

[7] = system: HER3 phosphorylation in ALK positive NSCLC cell lines; experiment: Western blotting of whole cell lysates after short-term and long-term ceritinib treatment; assay type: cell-based; conditions: long-term treatment, 4 ALK positive cell lines (FIG. 5)
Method: FIG. 5. […] Cells were harvested after short-term and long-term ceritinib (LDK378) treatment, and whole cell lysates were analyzed by Western blotting.
as §2

MGH051 cells [8] = experiment: Cell proliferation assay (CellTiter-Glo), ceritinib dose response; assay type: cell-based; conditions: 144 h; 0.3 μM ceritinib, 6 days, MGH051, relative to median DMSO signal; read-out: percent inhibition of cell proliferation
Method: (§7) MGH049 and MGH051 were obtained from Massachusetts General Hospital (Friboulet L, Li N, et al. Cancer Discovery 2014; 4: 662-73). These cell lines harbor EML4-ALK rearrangements. MGH049 and MGH051 were cultured in DMEM (ATCC Catalog #30-2002) supplemented with 10% FBS.
(§8) To determine the dose-response relationship between the dose of ceritinib and the magnitude of its effect on cell proliferation, 1K MGH049 and 4K MGH051 cells were plated in each well of 384 well-plates, and grown for 24 hours prior to treatment. Cells were then treated with DMSO or ceritinib at concentrations ranging from 4 nM to 1 μM (3-fold dilutions). After 6 days, cell proliferation was measured using the CellTiter-Glo luminescent cell viability assay. Percent inhibition was calculated relative to median DMSO signal.

MGH049 cells [9] = experiment: as above; assay type: cell-based; conditions: 144 h; 0.3 μM ceritinib, 6 days, MGH049, relative to median DMSO signal; read-out: percent inhibition of cell proliferation
Method: as §7, §8

NCI-H2228 cells = experiment: Secretome screening, CellTiter-Glo cell proliferation in presence of ceritinib; assay type: cell-based; conditions: 0.5 μM ceritinib, conditioned supernatant, 96 hours
Method: NCI-H2228 was obtained from ATCC. The cell lines harbored EML4-ALK rearrangements. NCI-H2228 cells were cultured in RPMI-1640 (ATCC Catalog #30-2001) supplemented with 15% FBS.
Secretome screening was performed as described previously (Lito P, Pratilas C A, et al. Cancer Cell 2012; 22: 668-82). In brief, 317 cDNA constructs that represent 220 unique secreted proteins were reverse transfected into HEK293T cells individually and incubated 4 days to allow accumulation of secreted proteins in supernatant. The supernatant was transferred to the assay cells, namely NCI-H2228 cells, followed by addition of ceritinib to a final concentration of 0.5 μM. Cell proliferation was measured using CellTiter-Glo after 96 hours. Cells treated with DMSO in the absence of conditioned media and with ceritinib alone were used as controls.
The Cell Titer Glo assay was done with H2228 cell line. The cell line stems from adenocarcinoma; non-small cell lung cancer. Cell Titer Glo assay is a Cell Viability Assay that determined the number of viable cells in culture based on quantitation of the ATP present, which signaled the presence of metabolically active cells.
“Ceritinib no ligand” represents cells that were treated with ceritinib only (absence of any ligand) and represents the impact of ceritinib on cell viability. […]

H2228 tumors = experiment: H2228 NSCLC xenograft efficacy; assay type: in vivo, female SCID-beige mice
Method: In this experiment female SCID Beige mice bearing H2228 tumors were used. At start, the mice were 8 to 12 weeks of age. First, the mice were inoculated with 4 mm^3 H2228 tumor fragments by subcutaneous injection in flank. The fragments were dipped in Matrigel before implanting. When tumors reached an average size of 100-150 mm^3 the treatment according to the scheme below commenced. The body weight was measured daily for the first 5 days and then biweekly until end. The tumor was measured biweekly by caliper until end. […] Dosing with the compounds ended on study day 32. After this the tumor size was monitored during an observation phase for re-growth.
The average tumor volume data in the graphs is not complete through the end of the study for all groups. Once a group lost more than 50% of the animals due to death or ethical sacrifice, the average tumor volume for the remaining animals in these groups was no longer graphed.

[10] = system: HER3 activation in MGH051 cells; experiment: Western blotting, MGH051 cells, inhibitors added for last day of long-term ceritinib treatment; assay type: cell-based; conditions: added for the last day of long-term (8 days) ceritinib treatment, MGH051 (FIG. 6)
Method: FIG. 6. Addition of HER3 and EGFR inhibitors represses the rebound in AKT phosphorylation. MGH051 cells were treated with ceritinib (LDK378) for 4 hours or 8 days.
The activated states of ALK and HER3 of multiple NSCLC cell lines that harbor EML4-ALK translocations were assessed in both short-term and long-term cultures. […] In addition, the levels of pHER3 correlated with the duration of the treatments (FIG. 5). Next, we assessed the activation of the downstream signaling of HER3 and the repression of ceritinib-induced HER3 activation using various inhibitors.

Compound: CN(C)C/C=C/C(=O)Nc1cc2c(Nc3ccc(F)c(Cl)c3)ncnc2cc1O[C@H]1CCOC1 [afatinib, (S,E)-N-(4-((3-chloro-4-fluorophenyl)amino)-7-((tetrahydrofuran-3-yl)oxy)quinazolin-6-yl)-4-(dimethylamino)but-2-enamide]
- rebound in AKT phosphorylation [1]: able to suppress the rebound in AKT phosphorylation
- ERK phosphorylation [2]: enhanced inhibition of ERK phosphorylation

Compound: C#Cc1cccc(Nc2ncnc3cc(OCCOC)c(OCCOC)cc23)c1 [erlotinib, N-(3-ethynylphenyl)-6,7-bis-(2-methoxyethoxy)quinazolin-4-amine]
- rebound in AKT phosphorylation [1]: able to suppress the rebound in AKT phosphorylation
- ERK phosphorylation [2]: enhanced inhibition of ERK phosphorylation
- anti-proliferative effect in combination with ceritinib versus ceritinib alone (colony formation) (MGH051 cells [3]): greater anti-proliferative effect
- anti-proliferative effect in combination with ceritinib versus ceritinib alone (colony formation) (MGH051 cells [3]; listed as Erlotinib): enhances the anti-proliferation activity of ceritinib
- cell growth inhibition as single agent (colony formation) (MGH051 cells [3]): no effect on cell growth
- anti-proliferative effect in combination with ceritinib versus ceritinib alone (colony formation) (MGH049 cells [4]): greater anti-proliferative effect
- anti-proliferative effect in combination with ceritinib versus ceritinib alone (colony formation) (MGH049 cells [4]; listed as Erlotinib): enhances the anti-proliferation activity of ceritinib
- cell growth inhibition as single agent (colony formation) (MGH049 cells [4]): no effect on cell growth

Compound: CS(=O)(=O)CCNCc1ccc(-c2ccc3ncnc(Nc4ccc(OCc5cccc(F)c5)c(Cl)c4)c3c2)o1 [lapatinib, N-[3-chloro-4-(3-fluorobenzyloxy)phenyl]-6-{5-[4-(methylsulfonyl)-2-azabutyl]-2-furyl} quinazolin-4-amine]
- cell growth, EGFR inhibitor in combination with ceritinib (MGH051 cells [5]): synergistically reduced cell growth
- cell growth, EGFR inhibitor in combination with ceritinib (MGH049 cells [6]): synergistically reduced cell growth

Compound: Cc1cc(C(=O)Nc2nc3cccc(Cl)c3n2[C@@H]2CCCCN(C(=O)/C=C/CN(C)C)C2)ccn1 [compound A, (R,E)-N-(7-chloro-1-(1-(4-(dimethylamino)but-2-enoyl)azepan-3-yl)-1H-benzo[d]imidazol-2-yl)-2-methylisonicotinamide]
- cell growth, EGFR inhibitor in combination with ceritinib (MGH051 cells [5]; in combination with 0.5 μM ceritinib, 6 days, MGH051 (FIG. 4)): synergistically reduced cell growth
- cell growth, EGFR inhibitor in combination with ceritinib (MGH049 cells [6]; in combination with 0.5 μM ceritinib, 6 days, MGH049 (FIG. 3)): synergistically reduced cell growth

Compound: Cc1cc(Nc2ncc(Cl)c(Nc3ccccc3S(=O)(=O)C(C)C)n2)c(OC(C)C)cc1C1CCNCC1 [ceritinib, 5-chloro-N^2-(2-isopropoxy-5-methyl-4-(piperidin-4-yl)phenyl)-N^4-[2-(propane-2-sulfonyl)-phenyl]-pyrimidine-2,4-diamine]
- sensitivity of cell line to ceritinib alone (MGH049 cells [6]; MGH049, no ALK resistance mutations): resistant
- HER3 phosphorylation [7]: induction of HER3 phosphorylation; also recorded: up-regulation of HER3 phosphorylation
- AKT phosphorylation ([1]; ceritinib 8-day treatment): profound rebound in AKT phosphorylation
- AKT phosphorylation ([1]; ceritinib initial (4 hours) treatment): initial inhibition of AKT phosphorylation
- inhibition at 0.3 µM (MGH051 cells [8]): 70%
- inhibition at 0.3 µM (MGH049 cells [9]): 20%
- reversal of growth inhibitory effect of ceritinib by secreted ligands (cell viability) (NCI-H2228 cells): Ligands for EGFR and ERBB3 clearly overcame the inhibitory effect of ceritinib
- cell growth inhibition as single agent (colony formation) (MGH051 cells [3]): partially effective
- cell growth inhibition as single agent (colony formation) (MGH049 cells [4]): less effective

Compound: Antibody A: anti-HER3 antibody comprising the sequences of MOR10703 as defined in Table 1
- rebound in AKT phosphorylation [1]: markedly suppressed
- efficacy (tumor volume) of LDK378 in combination with the antibody (H2228 tumors; LDK378 25 or 50 mg/kg po qd × 32 + cetuximab 20 mg/kg ip biwk × 5 or Ab A 25 mg/kg ip qod × 17 (FIGS. 8A, 8B)): significantly improved efficacy of LDK378
- efficacy of ceritinib with Antibody A and cetuximab combined (triple combination) (H2228 tumors; ceritinib + Antibody A + cetuximab): significantly improve the efficacy of ceritinib
- activation of HER3 [10]: markedly suppressed
